Test results as given in PubChem BioAssay AID588495 (Sanford-Burnham Center for Chemical Genomics, 2011).
pEC50: −log10 of the molar value. Values joined by “and” are separate entries in the source; they are usually repeats but may differ in a detail not shown here. Equal entries are not always repeated. Active and inactive are the calls of the source.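 The calls were made as follows: active = mean EC50 of 20 µM or lower; inactive = the rest.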

What follows are compounds tested against Neurotensin receptor type 2 (Homo sapiens) (UniProt O95665) (assay: beta-arrestin recruitment via NTR2 activation – imaging, NTR2-U2OS cells, beta-arrestin GFP imaging, selectivity assay for NTR1 agonist project, SAR follow-up (AID 588495)). Settings: image-based GFP translocation.
Neurotensin receptor type 2 (Homo sapiens), sequence (O95665 whole entry, looked up): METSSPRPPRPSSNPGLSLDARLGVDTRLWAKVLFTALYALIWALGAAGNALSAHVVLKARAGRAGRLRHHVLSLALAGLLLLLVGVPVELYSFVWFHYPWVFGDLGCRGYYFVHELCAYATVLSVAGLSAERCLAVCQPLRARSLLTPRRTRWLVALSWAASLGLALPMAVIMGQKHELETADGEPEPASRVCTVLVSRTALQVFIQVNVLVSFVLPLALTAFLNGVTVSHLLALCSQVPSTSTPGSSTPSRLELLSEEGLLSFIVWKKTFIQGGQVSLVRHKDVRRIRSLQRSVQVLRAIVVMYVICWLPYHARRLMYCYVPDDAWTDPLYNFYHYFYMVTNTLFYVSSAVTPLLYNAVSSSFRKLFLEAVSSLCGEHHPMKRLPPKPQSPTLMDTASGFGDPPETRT

| Structure (SMILES) | EC50 | pEC50 |
| --- | --- | --- |
| COc1ccccc1N1CCN(c2ncnc3c2cnn3-c2ccc(C)cc2C)CC1 | > 40 µM (inactive) | – |
| COc1cccc(OC)c1-c1cc(C(=O)O)nn1-c1ccnc2cc(Cl)ccc12 | > 40 µM (inactive) | – |
| Cc1ccc(-n2ncc3c(N4CCN(c5cc(C)ccc5C)CC4)ncnc32)c(C)c1 | > 40 µM (inactive) | – |
| Cc1cc(Cl)ccc1-n1ncc2c(N3CCN(c4ccccc4)CC3)ncnc21 | > 40 µM (inactive) | – |
| CCCSc1nc2cc(OC)c(OC)cc2c(=N)n1Cc1cccc(C(F)(F)F)c1 | > 40 µM (inactive) | – |
| CC(C)C[C@H](NC(=O)c1cn(-c2ccnc3ccccc23)c2ccccc12)C(=O)O | > 40 µM (inactive) | – |
| COc1cc2nc(-c3ccccc3)nc(N3CCN(c4ccccc4F)CC3)c2cc1OC | > 40 µM (inactive) | – |
| CC(C)C[C@H](NC(=O)c1cn(-c2ccnc3cc(Cl)ccc23)c2ccccc12)C(=O)O | > 40 µM (inactive) | – |
| CC(C)C[C@H](NC(=O)c1cn(-c2ccnc3cc(Cl)ccc23)c(-c2ccccc2)n1)C(=O)O | > 40 µM (inactive) | – |
| COc1ccc(Cn2c(SCc3ccccc3)nc3cc(OC)c(OC)cc3c2=N)cc1Cl | > 40 µM (inactive) | – |
| COc1cc2nc(C3CCC3)nc(N3CCN(c4ccccc4F)CC3)c2cc1OC | > 40 µM (inactive) | – |
| Cc1ccc(-n2ncc3c(N4CCN(c5ccccc5F)CC4)ncnc32)c(C)c1 | > 40 µM (inactive) | – |
| COc1ccc(Cn2c(SCc3cccc(C(F)(F)F)c3)nc3cc(OC)c(OC)cc3c2=N)cc1Cl | > 40 µM (inactive) | – |
| CC(=O)c1ccc(N2CCN(c3ncnc4c3cnn4-c3ccc(C)cc3C)CC2)cc1 | > 40 µM (inactive) | – |
| COc1ccccc1-c1cc(C(=O)N[C@@H](CC(C)C)C(=O)O)nn1-c1ccnc2cc(Cl)ccc12 | > 40 µM (inactive) | – |
| CC(C)C[C@H](NC(=O)c1cn(-c2ccncc2)c(-c2ccccc2)n1)C(=O)O | > 40 µM (inactive) | – |
| COc1ccccc1-c1cc(C(=O)N[C@@H](CC(C)C)C(=O)OC(C)(C)C)nn1-c1ccnc2cc(Cl)ccc12 | > 40 µM (inactive) | – |
| Cc1ccc(-n2ncc3c(N4CCN(c5cccc(Cl)c5)CC4)ncnc32)c(C)c1 | > 40 µM (inactive) | – |
| Clc1cccc(-n2ncc3c(N4CCN(c5ccccc5)CC4)ncnc32)c1 | > 40 µM (inactive) | – |
| Cc1ccc(-n2ncc3c(N4CCN(c5ccccc5Cl)CC4)ncnc32)c(C)c1 | > 40 µM (inactive) | – |
| COc1ccc(Cn2c(SCc3ccc(C)cc3)nc3cc(OC)c(OC)cc3c2=N)cc1Cl | > 40 µM (inactive) | – |
| Cc1ccc(-n2ncc3c(N4CCN(c5ccccc5)CC4)ncnc32)c(C)c1 | > 40 µM (inactive) | – |
| Cc1ccc(Cn2cc3c(-c4ccc(F)cc4)nnc-3c3cc4c(cc32)OCO4)cc1 | – | 4.82 |
| COc1cc2nc(C3CCC3)nc(N3CCN(c4ccccc4OC)CC3)c2cc1OC | > 40 µM (inactive) | – |

| Structure (SMILES) | EC50 | pEC50 |
| --- | --- | --- |
| CC(C)C[C@H](NC(=O)c1cn(-c2ccnc3ccccc23)c(-c2ccccc2)n1)C(=O)O | > 40 µM (inactive) | – |
| Cc1ccc(-n2ncc3c(N4CCN(c5ccc(Cl)c(Cl)c5)CC4)ncnc32)c(C)c1 | > 40 µM (inactive) | – |
| COc1cc2nc(C3CCC3)nc(N3CCN(c4ccccc4)CC3)c2cc1OC | > 40 µM (inactive) | – |
| Clc1ccccc1-n1ncc2c(N3CCN(c4ccccc4)CC3)ncnc21 | > 40 µM (inactive) | – |
| c1ccc(N2CCN(c3ncnc4c3cnn4-c3ccccc3)CC2)cc1 | > 40 µM (inactive) | – |
| CC(C)C[C@H](NC(=O)c1cn(-c2ccnc3ccccc23)c2c(OCc3ccccc3)cccc12)C(=O)O | > 40 µM (inactive) | – |
| Cc1ccc(-n2ncc3c(N4CCN(c5ccccc5)CC4)ncnc32)cc1C | > 40 µM (inactive) | – |
| COc1ccc(Cn2c(SCc3cc(C)ccc3C)nc3cc(OC)c(OC)cc3c2=N)cc1Cl | > 40 µM (inactive) | – |
| COc1cc2c3nnc(-c4ccccc4)c-3cn(Cc3ccc(F)cc3)c2cc1OC | > 40 µM (inactive) | – |
| COc1ccc(Cn2c(SCc3ccccc3C)nc3cc(OC)c(OC)cc3c2=N)cc1Cl | > 40 µM (inactive) | – |
| COc1cc2nc(C)nc(N3CCN(c4ccccc4OC)CC3)c2cc1OC | > 40 µM (inactive) | – |
| COc1cccc(N2CCN(c3ncnc4c3cnn4-c3ccc(C)cc3C)CC2)c1 | > 40 µM (inactive) | – |
| c1ccc(Cn2cc3c(-c4ccccc4)nnc-3c3ccccc32)cc1 | > 40 µM (inactive) | – |
| Cc1ccc(-n2ncc3c(N4CCN(c5ccc(F)cc5)CC4)ncnc32)c(C)c1 | > 40 µM (inactive) | – |
| CCOC(=O)c1cc(-c2c(OC)cccc2OC)n(-c2ccnc3cc(Cl)ccc23)n1 | > 40 µM (inactive) | – |
| Cc1cccc(C)c1-c1nc(C(=O)N[C@@H](CC(C)C)C(=O)O)cn1-c1ccnc2cc(Cl)ccc12 | > 40 µM (inactive) | – |
| CCOc1cc2nc(-c3ccc(OC)c(OC)c3)nc(N3CCN(c4ccccc4F)CC3)c2cc1OC | > 40 µM (inactive) | – |
| COc1cccc(OC)c1-c1nc(C(=O)O)cn1-c1ccncc1 | > 40 µM (inactive) | – |
| CCOc1cc2c(N3CCN(c4ccccc4OC)CC3)nc(-c3ccc(OC)c(OC)c3)nc2cc1OC | > 40 µM (inactive) | – |
| COc1ccccc1-c1cc(C(=O)O)nn1-c1ccnc2cc(Cl)ccc12 | > 40 µM (inactive) | – |
| COc1cc2c3nnc(-c4ccc(C)c(C)c4)c-3cn(Cc3ccccc3)c2cc1OC | > 40 µM (inactive) | – |
| O=C(O)c1nc(-c2ccnc3ccccc23)c(-c2ccccc2)s1 | > 40 µM (inactive) | – |
| COc1cc2nc(-c3ccccc3)nc(N3CCN(c4ccc(Cl)cc4)CC3)c2cc1OC | > 40 µM (inactive) | – |
| COc1cc2nc(-c3ccccc3)nc(N3CCN(c4ccccc4OC)CC3)c2cc1OC | > 40 µM (inactive) | – |

Continued, values first:

| EC50 | pEC50 | Structure (SMILES) |
| --- | --- | --- |
| > 40 µM (inactive) | – | CCN(CC)c1ccc(/C=N/Nc2nc(-c3ccc(S(=O)(=O)N(C)C)cc3)cs2)cc1 |
| > 40 µM (inactive) | – | COc1ccc(-n2ncc3c(N4CCN(c5ccccc5)CC4)ncnc32)cc1 |
| > 40 µM (inactive) | – | COc1ccc(-c2nnc3c4cc(OC)c(OC)cc4n(Cc4ccccc4)cc2-3)cc1 |
| > 40 µM (inactive) | – | COc1cc2nc(-c3ccccc3)nc(N3CCN(c4ccccc4)CC3)c2cc1OC |
| > 40 µM (inactive) | – | COc1cccc(OC)c1-c1nc(C(=O)N[C@@H](CC(C)C)C(=O)O)cn1-c1ccc(C)cc1 |
| > 40 µM (inactive) | – | COc1ccccc1-c1nc(C(=O)N[C@@H](CC(C)C)C(=O)O)cn1-c1ccncc1 |
| > 40 µM (inactive) | – | COc1ccc2c(c1)c1nnc(-c3ccc(F)cc3)c-1cn2Cc1ccc(C)cc1 |
| – | 5.36 | COc1cc2c3nnc(-c4ccc(C)c(C)c4)c-3cn(Cc3ccc(F)cc3)c2cc1OC |
| – | 5.38 and 5.48 | COc1cc2c3nnc(-c4ccc(F)cc4)c-3cn(Cc3ccc(C)cc3)c2cc1OC |
| > 40 µM (inactive) | – | CCOc1ccc(-c2nnc3c4cc(OC)c(OC)cc4n(Cc4ccccc4)cc2-3)cc1 |
| – | 5.08 | COc1cc2c3nnc(-c4ccc(Cl)cc4)c-3cn(Cc3ccccc3)c2cc1OC |
| > 40 µM (inactive) | – | CC(C)C[C@H](NC(=O)c1nc(-c2ccnc3ccccc23)c(-c2ccccc2)s1)C(=O)O |
| > 40 µM (inactive) | – | CCN(CC)S(=O)(=O)c1ccc(-c2csc(N/N=C/c3ccco3)n2)cc1 |
| > 40 µM (inactive) | – | COc1ccc(/C=N/Nc2nc(-c3ccc(S(=O)(=O)N(C)C)cc3)cs2)cc1 |
| – | 5.22 | COc1cc2c3nnc(-c4ccc(F)cc4)c-3cn(Cc3ccccc3)c2cc1OC |
| inactive | – | COc1cc2c3nnc(-c4ccc(C)c(C)c4)c-3cn(Cc3ccc(C)cc3)c2cc1OC |
| > 40 µM (inactive) | – | CN(C)S(=O)(=O)c1ccc(-c2csc(N/N=C/c3ccco3)n2)cc1 |

| EC50 | pEC50 | Structure (SMILES) |
| --- | --- | --- |
| – | 5.11 | COc1cc2c3nnc(-c4ccc(Cl)cc4)c-3cn(Cc3ccc(F)cc3)c2cc1OC |
| > 40 µM (inactive) | – | COc1cccc(OC)c1-c1nc(C(=O)N[C@@H](CC(C)C)C(=O)O)cn1-c1ccnc2ccccc12 |
| > 40 µM (inactive) | – | COc1ccccc1-c1nc(C(=O)N[C@@H](CC(C)C)C(=O)O)cn1-c1ccnc2ccccc12 |
| inactive | – | CCc1ccc(-c2nnc3c4cc(OC)c(OC)cc4n(Cc4ccc(F)cc4)cc2-3)cc1 |
| – | 4.70 | COc1cc2c3nnc(-c4ccc(Cl)cc4)c-3cn(Cc3ccc(C)cc3)c2cc1OC |
| > 40 µM (inactive) | – | CCc1ccc(-c2nnc3c4cc(OC)c(OC)cc4n(Cc4ccccc4)cc2-3)cc1 |
| > 40 µM (inactive) | – | CC(C)C[C@H](NC(=O)c1nc(-c2ccncc2)c(-c2ccccc2)s1)C(=O)O |
| > 40 µM (inactive) | – | CCOc1ccc(-c2nnc3c4cc(OC)c(OC)cc4n(Cc4ccc(C)cc4)cc2-3)cc1 |
| > 40 µM (inactive) | – | CN(C)S(=O)(=O)c1ccc(-c2csc(N/N=C/c3cccs3)n2)cc1 |
| > 40 µM (inactive) | – | COc1ccc(-c2nc(C(=O)N[C@@H](CC(C)C)C(=O)O)cn2-c2ccnc3cc(Cl)ccc23)c(OC)c1 |
| > 40 µM (inactive) | – | COc1ccc(/C=N/Nc2nc(-c3ccc(S(=O)(=O)N(C)C)cc3)cs2)cc1OC |
| > 40 µM (inactive) | – | Cc1ccc(Cn2cc3c(-c4ccc(F)cc4)nnc-3c3ccccc32)cc1 |
| > 40 µM (inactive) | – | Cc1ccc(/C=N/Nc2nc(-c3ccc(S(=O)(=O)N(C)C)cc3)cs2)cc1 |
| – | 5.26 | COc1ccc(-c2nnc3c4cc(OC)c(OC)cc4n(Cc4ccc(C)cc4)cc2-3)cc1 |
| > 40 µM (inactive) | – | COc1cc2c3nnc(-c4ccccc4)c-3cn(Cc3ccc(C)cc3)c2cc1OC |
| – | 5.01 | COc1cc2c3nnc(-c4ccc(F)cc4)c-3cn(Cc3ccc(F)cc3)c2cc1OC |
| > 40 µM (inactive) | – | COc1cccc(OC)c1-c1nc(C(=O)N[C@@H](CC(C)C)C(=O)O)cn1-c1ccncc1 |
